{
  "source": "patent US10561638B2",
  "about": "“Methods for treating dependence” (Biotie Therapies, Inc., priority 2007, dated 2020)",
  "system": "plasma noradrenaline, dopamine and epinephrine",
  "test": "Plasma catecholamines in beagle dogs, 2 mg/kg b.i.d. for 15 days",
  "type": "in vivo",
  "procedure": "Male beagle dogs were randomized to be orally dosed with either empty capsules (control) or nepicastat (2 mg·kg^−1, po, b.i.d.) for 15 days. Daily venous blood samples were drawn, six hours after the first dose, for measurement of plasma concentrations of dopamine and noradrenaline. The samples were collected in tubes containing heparin and glutathione, centrifuged at −4° C. and the separated plasma was stored at −70° C. until analysis. […] When compared to the control group, nepicastat (2 mg·kg^−1, b.i.d, po) produced significant decreases in plasma concentrations of noradrenaline and increases in plasma concentrations of dopamine and dopamine/noradrenaline ratio.\nThe chronic effects of nepicastat (14.5 day treatment) on the plasma DA/NE ratio were investigated in normal dogs. Animals were randomized to receive, orally, either placebo (empty capsule) or nepicastat (2 mg/kg, b.i.d) for 14.5 days. Daily blood samples were drawn, 6 h after the first dose, for the measurement of plasma concentrations of DA and NE. The samples were collected in tubes containing heparin and glutathione, centrifuged at −4° C. and stored at −70° C. until analysis.\nMale Beagle dogs (Marshall farms, North Rose, N.Y.) weighing between 9-16 kg were used in the study. The animals were allowed water ad libitum and given food once daily at ˜10.00 AM. Animals were randomly assigned to one of the following treatment groups (n=8/group): placebo (empty capsule), or nepicastat at 2 mg/kg b.i.d (4 mg/kg/day). Each animal received 2 doses daily, morning and afternoon (8-10 hours apart). Daily blood samples (10 ml) were drawn 6 h after the AM dose for measurement of plasma levels of nepicastat and catecholamines. The blood was collected in tubes containing heparin and glutathione and centrifuged at −4° C. within 1 h of collection. The plasma was separated and divided into two samples, one for the measurement of plasma catecholamines and the other for analysis of nepicastat.\nPlasma norepinephrine (NE), dopamine (DA) and epinephrine (EPI) were analyzed by HPLC using electrochemical detection. Plasma concentration of nepicastat was determined by HPLC using electrochemical detection.\nThe BQL (below quantitation limit) in the DA concentration of dog 1 at day 10 was set to 0; 1n (0) was set to missing. The analysis was performed using a mixed model (using PROC MIXED) with the day and treatment categorical variables being fixed and the dog within treatment being a random factor. For the fixed effects, the interaction between the day and the treatment was included, since the difference between the drug and placebo groups varies from day to day. Contrasts were calculated using the CONTRAST statement, which correctly takes into account the error terms for each particular contrast. In particular, the contrasts comparing the treatment group to the […] uses the dog mean square for its error term, while the comparisons used to establish steady state are all within dog comparisons, and require the error mean square.\nThe time period of steady state was calculated using the Helmert transformation (cf. SAS PROC GLM manual). These transformations compare each treatment mean with the average of the treatment means of the time points following. The steady state period is defined to start at the first time point following the maximum time at which the Helmert contrast is statistically significant. However, since this method can fail to detect a smoothly changing process, as appears might be the case here, the slope of the analyte concentration during the steady state period also was calculated. The slope during the steady state period was calculated for each dog individually, yielding one slope per animal. Univariate statistics on the slopes were then calculated, with Normal theory confidence intervals built on the mean slope, and the hypothesis of slope equaling zero was tested, and its Normal theory p-value was calculated. […]",
  "data": [
    {"smiles": "Cl.NCc1c[nH]c(=S)n1[C@H]1CCc2c(F)cc(F)cc2C1", "note": "[nepicastat, (S)-5-Aminomethyl-1-(5,7-difluoro-1,2,3,4-tetrahydronaphth-2-yl)-2,3-dihydro-2-thioxo-1H-imidazole hydrochloride]", "values": [
      {"measurement": "day of peak decrease in plasma EPI", "value": 8, "unit": "days"},
      {"measurement": "day of peak decrease in plasma NE", "value": 6, "unit": "days"},
      {"measurement": "day of peak increase in plasma DA", "value": 7, "unit": "days"},
      {"measurement": "day of peak increase in plasma DA/NE ratio", "value": 6, "unit": "days"},
      {"measurement": "days of dosing until decrease in plasma noradrenaline attained significance", "value": 4, "unit": "days"},
      {"measurement": "decrease in plasma EPI vs placebo", "value": 1.91, "unit": "fold"},
      {"measurement": "decrease in plasma NE vs placebo", "value": 2.1, "unit": "fold"},
      {"measurement": "increase in plasma DA vs placebo", "value": 7.5, "unit": "fold"},
      {"measurement": "increase in plasma DA/NE ratio vs placebo", "value": 13.6, "unit": "fold"},
      {"measurement": "time of peak effect on plasma DA/NE ratio", "value": "6 to 7", "unit": "days"},
      {"measurement": "time to steady-state of effect on plasma DA", "value": "~8", "unit": "days post-dose"},
      {"measurement": "time to steady-state of effect on plasma EPI", "value": "~6", "unit": "days post-dose"},
      {"measurement": "time to steady-state of effect on plasma NE", "value": "approximately 4 days post-dose"}
    ]}
  ]
}
